Tests used:
chicory = test system: chicory; parameters: species or system Cichorium intybus; details: in vivo
Method: (§1) Field trials were conducted in Northern France and Belgium, both of which are major areas for root chicory and whitloof chicory production. Trials were conducted in accordance with EPPO standard PP 1/99(3) entitled “Weeds in Roots Vegetables,” PP 1/152(4) entitled “Design and Analysis of Efficacy Evaluation Trials,” PP 1/135(3) entitled “Phytotoxic Assessment,” and PP 1/181(4) entitled “Conduct and Reporting of Efficacy Evaluation Trials Including Good Experimental Practice,” all of which are incorporated herein by reference in their entirety.
(§2) Application to all field trials was made using a small plot precision sprayer operating at between 160-400 kilopascals (kPa) pressure, delivering a spray volume of 150-400 liters per hectare (L/ha). Nozzles were of a flat fan type. Trial plot size ranged from 4.5×2.5 square meters (m^2) to 10.5×2.5 m^2. Plots were replicated 3 or 4 times and were arranged in a randomized block design within each trial. […]
(§3) In whitloof chicory (Cichorium intybus), treatments were evaluated which included either two or three post-emergence applications of herbicide. Multiple applications of herbicide were evaluated for their ability to control weed emergence during the extended period of time required for chicory cultivation. […]

undesirable vegetation = test: Weed control field trials, overall statement; format: in vivo; details: applied post-emergence to the crop and weeds
Method: as §1
as §2, with “m^2.” for “m^2. Plots were replicated 3 or 4 times and were arranged in a randomized block design within each trial.”
as §3
3) Following treatments, the remaining plants were weighed to determine the mass per plant (expressed as g/plant) one month after the last pesticide application. […]

[1] = test system: Galinsoga ciliata (shaggy soldier) / Galinsoga parviflora (potato weed), GASCI-GASPA; test: Field trial, post-emergence weed control in chicory; format: in vivo; details: 4 trials, 30 days after last application
Method: as §1
(§4) Application to all field trials was made using a small plot precision sprayer operating at between 160-400 kilopascals (kPa) pressure, delivering a spray volume of 150-400 liters per hectare (L/ha). Nozzles were of a flat fan type. Trial plot size ranged from 4.5×2.5 square meters (m^2) to 10.5×2.5 m^2. Plots were replicated 3 or 4 times and were arranged in a randomized block design within each trial. All trials received a pre-emergence application of BONALAN® at 6 L/ha (benfluralin; 180 grams active ingredient per liter (g ai/L); commercially available from Dow AgroSciences LLC) with incorporation to prevent the emergence of grasses which could complicate the assessment of broadleaf control.
(§5) In whitloof chicory (Cichorium intybus), treatments were evaluated which included either two or three post-emergence applications of herbicide. Multiple applications of herbicide were evaluated for their ability to control weed emergence during the extended period of time required for chicory cultivation. Trials included different combinations of application rate and application timing. Broadcast applications were made from May to July, covering a range of possible application timings. Penoxulam was applied at a maximum total rate of 15 g/ha per season, applied in two or three applications with a minimum of seven days between applications. Treatment with penoxsulam involved application of either BOA® or VIPER® (2.14% weight per weight (w/w) oil dispersions of penoxsulam commercially available from Dow AgroSciences LLC). Trials were also conducted using another ALS mode-of-action herbicide (i.e., the sulfonylurea triflusulfuron-methyl). Triflusulfuron-methyl was applied at a maximum total rate of 30 g/ha per season, applied in two or three applications with a minimum of seven days between applications. Treatment with triflusulfuron-methyl involved application of SAFARI® (triflusulfuron-methyl; commercially available from DuPont Crop Protection).
(§6) Prior to treatment application, assessments of weed populations (number of plants per m^2) were carried out using a quadrant square and an appropriate number of sampling points.
(§7) 1) Visual rating in percent of the overall volume reduction of vegetation for each species compared to the nearest untreated plot (Plant/Control/% visual; 0%=no control; 100%=all weeds dead). Assessments of this type were performed by Dow AgroSciences LLC in France.
(§8) Assessments of weed control were carried out at 14, 28, 56 and 84 days or longer after each application timing (DAAA=days after application A, DAAB=days after application B or DAAC=days after application C).

[2] = test system: Sonchus sp. (sow-thistle), SONSS; test: as above; format: in vivo; details: 1 trial, 30 days after last application
Method: as §1, §4, §5, §6, §7, §8

[3] = test system: Coronopus didymus (lesser swinecress), COPDI; test: as above; format: in vivo; details: 2 trials, 30 days after last application
Method: as §1, §4, §5, §6, §7, §8

[4] = test system: Artemisia biennis (biennial wormwood), ARTRI; test: as above; format: in vivo; details: 3 trials, 30 days after last application
Method: as §1, §4, §5, §6, §7, §8

[5] = test system: Matricaria recutita (wild chamomile), MATCH; test: as above; format: in vivo; details: 2-3 trials (number of trials in parentheses in cell), 30 days after last application
Method: as §1, §4, §5, §6, §7, §8

[6] = 3 applications 3.73/3.73/3.73 g ai/ha

COc1cnc(OC)n2nc(NS(=O)(=O)c3c(OCC(F)F)cccc3C(F)(F)F)nc12 [Penoxsulam]
crop tolerance (chicory): commercially acceptable crop tolerance | visible crop injury (chicory): some visible crop injury | control of undesirable vegetation (undesirable vegetation): good control of undesirable vegetation | % Visual Weed Control ([1]; 2 applications 5.6/5.6 g ai/ha): 87.3% | % Visual Weed Control ([1]; 2 applications 7.5/7.5 g ai/ha): 87.9% | % Visual Weed Control [1, 6]: 95.9% | % Visual Weed Control ([1]; 3 applications 5/5/5 g ai/ha): 96.7% | % Visual Weed Control ([2]; 2 applications 5.6/5.6 g ai/ha): 86% | % Visual Weed Control ([2]; 2 applications 7.5/7.5 g ai/ha): 86% | % Visual Weed Control [2, 6]: 86% | % Visual Weed Control ([2]; 3 applications 5/5/5 g ai/ha): 86% | % Visual Weed Control ([3]; 2 applications 5.6/5.6 g ai/ha): 92.4% | % Visual Weed Control ([3]; 2 applications 7.5/7.5 g ai/ha): 96.25% | % Visual Weed Control [3, 6]: 90.15% | % Visual Weed Control ([3]; 3 applications 5/5/5 g ai/ha): 93.25% | % Visual Weed Control ([4]; 2 applications 5.6/5.6 g ai/ha): 64.4% | % Visual Weed Control ([4]; 2 applications 7.5/7.5 g ai/ha): 68.3% | % Visual Weed Control [4, 6]: 68.8% | % Visual Weed Control ([4]; 3 applications 5/5/5 g ai/ha): 76.4% | % Visual Weed Control ([5]; 2 applications 5.6/5.6 g ai/ha): 93 (2) % | % Visual Weed Control ([5]; 2 applications 7.5/7.5 g ai/ha): 93.9 (3) % | % Visual Weed Control [5, 6]: 91.4 (2) % | % Visual Weed Control ([5]; 3 applications 5/5/5 g ai/ha): 97.2 (3) %
